Values quoted from earlier work in patent US20070190114A1, “Antioxidant health lozenges” (priority 2006, published 2007).

Key:
[1] = daily dose of 600 mg
peripheral lymphocytes = peripheral lymphocytes in smokers
alveolar macrophages = alveolar macrophages in smokers

For `CC(=O)N[C@@H](CS)C(=O)O` [N-acetyl cysteine], which cancer chemopreventive effect [1] is on record?
The cancer chemopreventive effect was “effective cancer chemopreventive agent”.

With `O=C(O[C@@H]1Cc2c(O)cc(O)cc2O[C@@H]1c1cc(O)c(O)c(O)c1)c1cc(O)c(O)c(O)c1` [epigallocatechin gallate] as the compound, how does the sister-chromatid exchange (peripheral lymphocytes) read?
The sister-chromatid exchange was “stabilize sister-chromatid exchange in peripheral lymphocytes in smokers to a level comparable to non-smokers”.

Which “basal release of inflammatory cytokine” value (alveolar macrophages) does the source give for `Oc1ccc(C=Cc2cc(O)cc(O)c2)cc1` [resveratrol] here?
The value was “inhibits basal release of inflammatory cytokine from alveolar macrophages in smokers”.
